The record followed here is patent US20200055839A1 (priority 2017, published 2020).

Each structure is given as a SMILES string.

The first test deals with NL-RLuc virus. Description: Inhibition of HIV replication (NL-RLuc virus, luciferase readout in MT-2 cells). It counts as cell-based. Particulars: Human immunodeficiency virus 1, MT2, 120 h, MT-2 cells infected with NL-RLuc virus, 5 days of incubation, 10% FBS, at least 2 experiments. In short, it runs like this: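 EC50 derived via median effect equation from at least 2 experiments, using luciferase expression as virus-growth readout. Replication-competent NL-RLuc reporter virus (nef partly replaced by Renilla luciferase) infected MT-2 cells with serial compound dilutions; 5-day incubation in RPMI 1640 plus 10% FBS.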
As usually defined, the EC50 is the concentration giving half of the maximal effect. A higher EC50 goes with weaker potency. With `Cc1nc(Nc2ccc(C(=O)O)cn2)c(-c2ccc(OCCc3ccc(F)cc3)cc2)c(N2CCC(C)(C)CC2)c1[C@H](OC(C)(C)C)C(=O)O` [Example 101, (S)-6-((5-(tert-Butoxy(carboxy)methyl)-4-(4,4-dimethylpiperidin-1-yl)-3-(4-(4-fluorophenethoxy)phenyl)-6-methylpyridin-2-yl)amino)nicotinic acid], it took 10 nM to reach a half-maximal effect (EC50).

As for `Cc1nc(Nc2ccnc(C(=O)O)c2)c(-c2ccc(OCCc3ccc(F)cc3)cc2)c(N2CCC(C)(C)CC2)c1[C@H](OC(C)(C)C)C(=O)O` [Example 102, (S)-4-((5-(tert-Butoxy(carboxy)methyl)-4-(4,4-dimethylpiperidin-1-yl)-3-(4-(4-fluorophenethoxy)phenyl)-6-methylpyridin-2-yl)amino)picolinic acid], the EC50 amounted to 50 nM. The same measure, in the same setting: in the case of `Cc1nc(OCCO)c(-c2ccc(OCCc3ccc(F)cc3)cc2)c(N2CCC(C)(C)CC2)c1[C@H](OC(C)(C)C)C(=O)O` [Example 103, (S)-2-(tert-Butoxy)-2-(4-(4,4-dimethylpiperidin-1-yl)-5-(4-(4-fluorophenethoxy)phenyl)-6-(2-hydroxyethoxy)-2-methylpyridin-3-yl)acetic acid] it was 2 nM; in that of `Cc1nc(Nc2ccncc2)c(-c2ccc(OCCc3ccc(F)cc3)c(F)c2)c(N2CCC(C)(C)CC2)c1[C@H](OC(C)(C)C)C(=O)O` [Example 104, (S)-2-(tert-Butoxy)-2-(4-(4,4-dimethylpiperidin-1-yl)-5-(3-fluoro-4-(4-fluorophenethoxy)phenyl)-2-methyl-6-(pyridin-4-ylamino)pyridin-3-yl)acetic acid], 0.7 nM.

Consider `Cc1nc(Nc2ncccn2)c(-c2ccc(OCCc3ccc(F)cc3)c(F)c2)c(N2CCC(C)(C)CC2)c1[C@H](OC(C)(C)C)C(=O)O` [Example 105, (S)-2-(tert-Butoxy)-2-(4-(4,4-dimethylpiperidin-1-yl)-5-(3-fluoro-4-(4-fluorophenethoxy)phenyl)-2-methyl-6-(pyrimidin-2-ylamino)pyridin-3-yl)acetic acid], for which the EC50 is 4 nM. The molecule `Cc1nc(NC2CC2)c(-c2ccc(OCCc3ccc(F)cc3)cc2)c(N2CCC(C)(C)CC2)c1[C@H](OC(C)(C)C)C(=O)O` [Example 106, (S)-2-(tert-Butoxy)-2-(6-(cyclopropylamino)-4-(4,4-dimethylpiperidin-1-yl)-5-(4-(4-fluorophenethoxy)phenyl)-2-methylpyridin-3-yl)acetic acid] returned a concentration for a half-maximal effect (EC50) of 1 nM. Same read-out and setting: the figure for `CNc1nc(C)c([C@H](OC(C)(C)C)C(=O)O)c(N2CCC(C)(C)CC2)c1-c1ccc(OCCc2ccc(F)cc2)c(F)c1` [Example 108, (S)-2-(tert-Butoxy)-2-(4-(4,4-dimethylpiperidin-1-yl)-5-(3-fluoro-4-(4-fluorophenethoxy)phenyl)-2-methyl-6-(methylamino)pyridin-3-yl)acetic acid] is 3 nM; for `Cc1nc(Nc2ccc(C#N)cn2)c(-c2ccc(OCCc3ccc(F)cc3)cc2)c(N2CCC(C)(C)CC2)c1[C@H](OC(C)(C)C)C(=O)O` [Example 109, (S)-2-(tert-Butoxy)-2-(6-((5-cyanopyridin-2-yl)amino)-4-(4,4-dimethylpiperidin-1-yl)-5-(4-(4-fluorophenethoxy)phenyl)-2-methylpyridin-3-yl)acetic acid] it is 13 nM. On the same count and under the same terms, in the case of `Cc1ncc(-c2ccc(NCCc3ccc(F)cc3)nc2)c(N2CCC(C)(C)CC2)c1[C@H](OC(C)(C)C)C(=O)O` [Example 110, (S)-2-(tert-Butoxy)-2-(4-(4,4-dimethylpiperidin-1-yl)-6′-((4-fluorophenethyl)amino)-6-methyl-[3, 3′-bipyridin]-5-yl)acetic acid] it was 2 nM. Still for that read-out and setting: in the case of `Cc1ncc(-c2ccc(N(C)C)nc2)c(N2CCC(C)(C)CC2)c1[C@H](OC(C)(C)C)C(=O)O` [Example 111, (S)-2-(tert-Butoxy)-2-(6′-(dimethylamino)-4-(4,4-dimethylpiperidin-1-yl)-6-methyl-[3, 3′-bipyridin]-5-yl)acetic acid] it was 2 nM; in that of `CCOc1ccc(-c2cnc(C)c([C@H](OC(C)(C)C)C(=O)O)c2N2CCC(C)(C)CC2)cn1` [Example 112, (S)-2-(tert-Butoxy)-2-(4-(4,4-dimethylpiperidin-1-yl)-6′-ethoxy-6-methyl-[3, 3′-bipyridin]-5-yl)acetic acid], 5 nM; in that of `Cc1nc(N)c(-c2cnc(NCCc3ccc(F)cc3)c(F)c2)c(N2CCC(C)(C)CC2)c1[C@H](OC(C)(C)C)C(=O)O` [Example 113, (S)-2-(2-Amino-4-(4,4-dimethylpiperidin-1-yl)-5′-fluoro-6′-((4-fluorophenethyl)amino)-6-methyl-[3, 3′-bipyridin]-5-yl)-2-(tert-butoxy)acetic acid], 3 nM. Take `Cc1ncc(-c2cnc(N(C)C)c(F)c2)c(N2CCC(C)(C)CC2)c1[C@H](OC(C)(C)C)C(=O)O` [Example 114, (S)-2-(tert-Butoxy)-2-(6′-(dimethylamino)-4-(4,4-dimethylpiperidin-1-yl)-5′-fluoro-6-methyl-[3,3′-bipyridin]-5-yl)acetic acid]: the EC50 is 24 nM.

Regarding `Cc1nc(N)c(-c2cnc(OCCc3ccc(F)cc3)c(F)c2)c(N2CCC(C)(C)CC2)c1[C@H](OC(C)(C)C)C(=O)O` [Example 115, (S)-2-(2-Amino-4-(4,4-dimethylpiperidin-1-yl)-5′-fluoro-6′-(4-fluorophenethoxy)-6-methyl-[3, 3′-bipyridin]-5-yl)-2-(tert-butoxy)acetic acid], the EC50 stood at 1 nM. Still for that read-out and setting: in the case of `Cc1nc(N)c(-c2cnc(OCCc3cccc(F)c3)c(F)c2)c(N2CCC(C)(C)CC2)c1[C@H](OC(C)(C)C)C(=O)O` [Example 116, (S)-2-(2-Amino-4-(4,4-dimethylpiperidin-1-yl)-5′-fluoro-6′-(3-fluorophenethoxy)-6-methyl-[3, 3′-bipyridin]-5-yl)-2-(tert-butoxy)acetic acid] it was 1 nM. Still for that read-out and setting: in the case of `Cc1nc(N)c(-c2cnc(OCCc3ccccc3F)c(F)c2)c(N2CCC(C)(C)CC2)c1[C@H](OC(C)(C)C)C(=O)O` [Example 117, (S)-2-(2-Amino-4-(4,4-dimethylpiperidin-1-yl)-5′-fluoro-6′-(2-fluorophenethoxy)-6-methyl-[3, 3′-bipyridin]-5-yl)-2-(tert-butoxy)acetic acid] it was 1 nM; in that of `Cc1ncc(-c2cnc(OCCc3ccc(F)cc3)c(F)c2)c(N2CCC(C)(C)CC2)c1[C@H](OC(C)(C)C)C(=O)O` [Example 118, (S)-2-(tert-Butoxy)-2-(4-(4,4-dimethylpiperidin-1-yl)-5′-fluoro-6′-(4-fluorophenethoxy)-6-methyl-[3, 3′-bipyridin]-5-yl)acetic acid], 1 nM. On the same count and under the same terms, in the case of `Cc1ncc(-c2cnc(OCCc3cccc(F)c3)c(F)c2)c(N2CCC(C)(C)CC2)c1[C@H](OC(C)(C)C)C(=O)O` [Example 119, (S)-2-(tert-Butoxy)-2-(4-(4,4-dimethylpiperidin-1-yl)-5′-fluoro-6′-(3-fluorophenethoxy)-6-methyl-[3, 3′-bipyridin]-5-yl)acetic acid] it was 1 nM.

With `Cc1ncc(-c2cnc(OCCc3ccccc3F)c(F)c2)c(N2CCC(C)(C)CC2)c1[C@H](OC(C)(C)C)C(=O)O` [Example 120, (S)-2-(tert-Butoxy)-2-(4-(4,4-dimethylpiperidin-1-yl)-5′-fluoro-6′-(2-fluorophenethoxy)-6-methyl-[3, 3′-bipyridin]-5-yl)acetic acid], a half-maximal response (EC50) required 2 nM.

For `Cc1ncc(-c2ccc(OCCc3ccc(F)cc3)c(F)c2)c(N2CCC(C)(C)CC2)c1[C@H](OC(C)(C)C)C(=O)O` [Example 122, (S)-2-(tert-Butoxy)-2-(4-(4,4-dimethylpiperidin-1-yl)-5-(3-fluoro-4-(4-fluorophenethoxy)phenyl)-2-methylpyridin-3-yl)acetic acid], the midpoint of the response, the EC50, lay at 1 nM.

Regarding `Cc1ncc(-c2ccc(OCCc3ccc(F)cc3)cc2F)c(N2CCC(C)(C)CC2)c1[C@H](OC(C)(C)C)C(=O)O` [Example 123, (S)-2-(tert-Butoxy)-2-(4-(4,4-dimethylpiperidin-1-yl)-5-(2-fluoro-4-(4-fluorophenethoxy)phenyl)-2-methylpyridin-3-yl)acetic acid], it took 2 nM to reach a half-maximal effect (EC50).

As to `Cc1ncc(-c2ccc(OCCc3ccc(F)cc3)c(F)c2F)c(N2CCC(C)(C)CC2)c1[C@H](OC(C)(C)C)C(=O)O` [Example 124, (S)-2-(tert-Butoxy)-2-(5-(2,3-difluoro-4-(4-fluorophenethoxy)phenyl)-4-(4,4-dimethylpiperidin-1-yl)-2-methylpyridin-3-yl)acetic acid], a half-maximal response (EC50) required 2 nM. The same measure, in the same setting: in the case of `Cc1ncc(-c2cc(F)c(OCCc3ccc(F)cc3)cc2F)c(N2CCC(C)(C)CC2)c1[C@H](OC(C)(C)C)C(=O)O` [Example 125, (2S)-2-(tert-Butoxy)-2-(5-{2,5-difluoro-4-[2-(4-fluorophenyl)ethoxy]phenyl}-4-(4,4-dimethylpiperidin-1-yl)-2-methylpyridin-3-yl)acetic acid] it was 3 nM; in that of `Cc1ncc(-c2ccc(OCCc3ccc(F)cc3)cn2)c(N2CCC(C)(C)CC2)c1[C@H](OC(C)(C)C)C(=O)O` [Example 126, (2S)-2-(tert-Butoxy)-2-[4′-(4,4-dimethylpiperidin-1-yl)-5-[2-(4-fluorophenyl)ethoxy]-6′-methyl-[2, 3′-bipyridine]-5′-yl]acetic acid], 0.4 nM; in that of `Cc1ncc(-c2cc(F)c(OCCc3ccc(F)cc3)c(F)c2)c(N2CCC(C)(C)CC2)c1[C@H](OC(C)(C)C)C(=O)O` [Example 127, (S)-2-(tert-Butoxy)-2-(5-(3,5-difluoro-4-(4-fluorophenethoxy)phenyl)-4-(4,4-dimethylpiperidin-1-yl)-2-methylpyridin-3-yl)acetic acid], 4 nM.

The same test, now with this note: MT-2 cells infected with NL-RLuc virus, 5 days of incubation, 10% FBS, at least 2 experiments.
In turn, `Cc1ncc(-c2cnc(NCCc3ccc(F)cc3)c(F)c2)c(N2CCC(C)(C)CC2)c1[C@H](OC(C)(C)C)C(=O)O` [Example 121, (S)-2-(tert-Butoxy)-2-(4-(4,4-dimethylpiperidin-1-yl)-5′-fluoro-6′-((4-fluorophenethyl)amino)-6-methyl-[3, 3′-bipyridin]-5-yl)acetic acid] registered an EC50 of 2 nM.
